Test results as given in patent US7803825B2, “Aminoalkylazole derivatives as histamine-3 antagonists” (Wyeth LLC, priority 2007, dated 2010).
Structures can show the parent of a compound that is named as a salt.

What follows are compounds tested against T1, histamine-3 (H3) receptor (Homo sapiens, UniProt Q9Y5N1) (assay: Methyl Histamine Binding in Human Histamine-3 Receptor Cell Line). Settings: membranes of stably transfected HEK293T cells, radioligand 1 nM, Ki from IC50 by Cheng-Prusoff.
T1 construct: expressed in transfected cells; host or cells: HEK293T
T1 sequence (Q9Y5N1 whole entry): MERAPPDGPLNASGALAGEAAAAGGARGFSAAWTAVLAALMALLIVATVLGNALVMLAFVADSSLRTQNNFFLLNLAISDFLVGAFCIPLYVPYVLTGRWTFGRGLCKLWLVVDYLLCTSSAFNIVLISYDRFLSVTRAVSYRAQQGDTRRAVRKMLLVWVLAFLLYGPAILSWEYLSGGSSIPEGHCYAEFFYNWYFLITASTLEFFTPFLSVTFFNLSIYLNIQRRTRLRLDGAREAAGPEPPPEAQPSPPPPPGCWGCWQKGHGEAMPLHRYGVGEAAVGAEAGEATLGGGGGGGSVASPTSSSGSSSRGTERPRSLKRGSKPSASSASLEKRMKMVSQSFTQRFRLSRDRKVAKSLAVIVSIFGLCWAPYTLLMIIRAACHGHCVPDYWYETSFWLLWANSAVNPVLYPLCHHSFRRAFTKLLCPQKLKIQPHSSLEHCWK
Procedure: Evaluation of Methyl Histamine Binding in Human Histamine-3 Receptor Cell Line
The affinity of test compounds for the histamine-3 (H3) receptor is evaluated in the following manner. Stably transfected HEK293T cells are grown in DMEM containing 10% heat inactivated FBS and G-418 (500 ug/ml). Cells are scraped from the plate, transferred to centrifuge tubes, washed one time in PBS by centrifugation in a Sorvall RT7 Plus centrifuge (2000 rpm 10 minutes, 4° C.). The resulting pellets are stored at 80° C. until ready for use. Cells are re-suspended in buffer (50 mM Tris pH=7.5) and placed in a Dounce homogenizer, douncing ten times to homogenize cells. The homogenate is spun down by centrifugation (Sorvall RT7 Plus, 1800 rpm 10 minutes, 4° C.). The supernatant is placed in a Corex tube and spun down by centrifugation (Sorvall RC 5c Plus, 17,000 rpm 20 minutes, 4° C.). The pellet is resuspended in buffer (50 mM Tris, pH 7.5). Protein concentration (ug/ul) is determined using the Micro-BCA Protein Determination. The binding assay is set up in a 96 well microtiter plate in a total volume of 250 uL. Non-specific binding is determined in the presence of 10 uM clobenpropit. The final radioligand concentration is 1 nM. The test compound is serially diluted using the Beckman Biomek2000 to a final approximate range of 100 uM to 100 pM. Membranes are suspended in buffer, homogenized in 2 bursts of ten seconds using a Vitris mechanical homogenizer set at power setting 5. Ten μg of membranes are added to each well. Following a one hour incubation at 30° C., the reaction is terminated by the addition of ice cold buffer and rapid filtration with a Packard Filtermate Harvester through a GF/B filter pre-soaked with 1% PEI for one hour. The plate is dried for one hour at 37° C. and 60 μL Microscint Scintillant is added to each well. The CPM per well is measured on a Packard Top Count NXT. Ki values are determined in nM. The Ki is calculated from the IC50 (i.e. the concentration of competing ligand which displaces 50% of the specific binding of the radioligand). CPM values are expressed as % specific binding and plotted vs compound concentration. A curve is fitted using a four-parameter logistic fit and the IC50 value is determined. The Ki is calculated from this using the Cheng-Prusoff equation: […]=IC50/1+(L/Kd) where L=concentration of free radioligand used in the assay, and Kd is the dissociation constant of the radioligand for the receptor. L is determined for each experiment by counting an aliquot of the diluted radioligand (corresponding to that added to each well) and the Kd has previously been determined under identical conditions for this cell line/radioligand.

Ki [µM] | Structure (SMILES)
0.0501 to 0.1 | C[C@@H]1CCCN1Cc1coc(-c2ccc(Cn3ncc4ccc(F)cc43)cc2)n1 [Example 96, 6-fluoro-1-[4-(4-{[(2R)-2-methylpyrrolidin-1-yl]methyl}-1,3-oxazol-2-yl)benzyl]-1H-indazole]
0.0101 to 0.025 | FC(F)(F)c1nc2ccccc2n1Cc1ccc(-c2nc(CN3CCCCCC3)co2)cc1 [Example 120, 1-{4-[4-(azepan-1-ylmethyl)-1,3-oxazol-2-yl]benzyl}-2-(trifluoromethyl)-1H-benzimidazole]
0.0501 to 0.1 | CC1CCCCN1Cc1coc(-c2ccc(Cn3cnc4ccccc43)cc2)n1 (centres unmarked) [Example 15, 1-(4-{4-[(2-methylpiperidin-1-yl)methyl]-1,3-oxazol-2-yl}benzyl)-1H-benzimidazole]
> 0.1 | c1ccc2c(c1)ncn2Cc1ccc(-c2ncc(CN3CCCCCC3)o2)cc1 [Example 111, 1-{4-[5-(azepan-1-ylmethyl)-1,3-oxazol-2-yl]benzyl}-1H-benzimidazole]
0.0101 to 0.025 | c1ccc2c(c1)ncn2Cc1ccc(-c2nc(CN3CCCC3)cs2)cc1 [Example 71, 1-{4-[4-(Pyrrolidin-1-ylmethyl)-1,3-thiazol-2-yl]benzyl}-1H-benzimidazole Hydrochloride]
≤ 0.01 | c1ccc2c(c1)ncn2Cc1ccc(-c2nc(CN3CCCCC3)co2)cc1 [Example 7, 1-{4-[4-(piperidin-1-ylmethyl)-1,3-oxazol-2-yl]benzyl}-1H-benzimidazole]
≤ 0.01 | C[C@@H]1CCCN1Cc1coc(-c2ccc(Cn3cnc4ccccc43)cc2)n1 [Example 19, 1-[4-(4-{[(2R)-2-methylpyrrolidin-1-yl]methyl}-1,3-oxazol-2-yl)benzyl]-1H-benzimidazole]
≤ 0.01 | c1ccc(-c2nc3ccccc3n2Cc2ccc(-c3nc(CN4CCCC4)co3)cc2)cc1 [Example 115, 2-phenyl-1-{4-[4-(pyrrolidin-1-ylmethyl)-1,3-oxazol-2-yl]benzyl}-1H-benzimidazole]
≤ 0.01 | Cn1c(-c2ccc(-c3nc(CN4CCCCC4)co3)cc2)nc2ccccc21 [Example 52, 1-methyl-2-{4-[4-(piperidin-1-ylmethyl)-1,3-oxazol-2-yl]phenyl}-1H-benzimidazole]
0.0501 to 0.1 | C[C@@H]1CCCN1Cc1coc(-c2ccc(Cn3ncc4ccccc43)cc2)n1 [Example 94, 1-[4-(4-{[(2R)-2-methylpyrrolidin-1-yl]methyl}-1,3-oxazol-2-yl)benzyl]-1H-indazole]
0.0101 to 0.025 | C[C@H]1CCCN1Cc1coc(-c2ccc(Cn3c(C(F)(F)F)nc4ccccc43)cc2)n1 [Example 118, 1-[4-(4-{[(2S)-2-methylpyrrolidin-1-yl]methyl}-1,3-oxazol-2-yl)benzyl]-2-(trifluoromethyl)-1H-benzimidazole]
0.0251 to 0.05 | Fc1ccc2cnn(Cc3ccc(-c4nc(CN5CCCC5)co4)cc3)c2c1 [Example 101, 6-fluoro-1-{4-[4-(pyrrolidin-1-ylmethyl)-1,3-oxazol-2-yl]benzyl}-1H-indazole]
0.0101 to 0.025 | Fc1ccc2c(cnn2Cc2ccc(-c3nc(CN4CCCC4)co3)cc2)c1 [Example 100, 5-fluoro-1-{4-[4-(pyrrolidin-1-ylmethyl)-1,3-oxazol-2-yl]benzyl}-1H-indazole]
≤ 0.01 | c1ccc2c(c1)ncn2-c1ccc(-c2nc(CN3CCCCC3)co2)cc1 [Example 37]
0.0251 to 0.05 | c1ccc2c(c1)ncn2-c1ccc(-c2nc(CN3CCCCCC3)co2)cc1 [Example 44, 1-{4-[4-(azepan-1-ylmethyl)-1,3-oxazol-2-yl]phenyl}-1H-benzimidazole]
≤ 0.01 | Cc1oc(-c2ccc(Cn3cnc4ccccc43)cc2)nc1CN1CCCC1 [Example 28, 1-{4-[5-methyl-4-(pyrrolidin-1-ylmethyl)-1,3-oxazol-2-yl]benzyl}-1H-benzimidazole]
≤ 0.01 | c1ccc(-c2nc3ccccc3n2Cc2ccc(-c3nc(CN4CCCCC4)co3)cc2)cc1 [Example 123, 2-phenyl-1-{4-[4-(piperidin-1-ylmethyl)-1,3-oxazol-2-yl]benzyl}-1H-benzimidazole]
0.0251 to 0.05 | c1ccc(-c2nc3ccccc3n2Cc2ccc(-c3nc(CN4CCCCCC4)co3)cc2)cc1 [Example 121, 1-{4-[4-(azepan-1-ylmethyl)-1,3-oxazol-2-yl]benzyl}-2-phenyl-1H-benzimidazole]

Continued, compound first:

Structure (SMILES) | Ki [µM]
C[C@H]1CCCN1Cc1coc(-c2ccc(-c3nc4ccccc4n3CCC3CCCCC3)cc2)n1 [Example 61] | 0.0251 to 0.05
c1ccc2c(c1)ncn2Cc1ccc(-c2nc(CN3CCCCCC3)cs2)cc1 [Example 74, 1-{4-[4-(azepan-1-ylmethyl)-1,3-thiazol-2-yl]benzyl}-1H-benzimidazole] | ≤ 0.01
CC1CCCCN1Cc1coc(-c2ccc(-n3cnc4ccccc43)cc2)n1 (centres unmarked) [Example 45, 1-(4-{4-[(2-methylpiperidin-1-yl)methyl]-1,3-oxazol-2-yl}phenyl)-1H-benzimidazole] | ≤ 0.01
CC1CCCN(Cc2coc(-c3ccc(-n4cnc5ccccc54)cc3)n2)C1 (centres unmarked) [Example 46, 1-(4-{4-[(3-methylpiperidin-1-yl)methyl]-1,3-oxazol-2-yl}phenyl)-1H-benzimidazole] | ≤ 0.01
CCN(C)Cc1coc(-c2ccc(-n3cnc4ccccc43)cc2)n1 [Example 39] | 0.0101 to 0.025
CC1CCCN1Cc1coc(-c2ccc(-n3cnc4ccccc43)cc2)n1 (centres unmarked) [Example 43, 1-(4-{4-[(2-methylpyrrolidin-1-yl)methyl]-1,3-oxazol-2-yl}phenyl)-1H-benzimidazole] | 0.0101 to 0.025
CCN(C)Cc1cnc(-c2ccc(Cn3cnc4ccccc43)cc2)o1 [Example 112] | > 0.1
CCN(CC)Cc1cnc(-c2ccc(Cn3cnc4ccccc43)cc2)o1 [Example 113, N-({2-[4-(1H-benzimidazol-1-ylmethyl)phenyl]-1,3-oxazol-5-yl}methyl)-N-ethylethanamine] | > 0.1
CN(C)Cc1coc(-c2ccc(-n3cnc4ccccc43)cc2)n1 [Example 38] | 0.0101 to 0.025
OC[C@@H]1CCCN1Cc1coc(-c2ccc(Cn3cnc4ccccc43)cc2)n1 [Example 18, [(2S)-1-({2-[4-(1H-benzimidazol-1-ylmethyl)phenyl]-1,3-oxazol-4-yl}methyl)pyrrolidin-2-yl]methanol] | 0.0101 to 0.025
CC1(C)CC2CC(C)(CN2Cc2cnc(-c3ccc(Cn4cnc5ccccc54)cc3)o2)C1 (centres unmarked) [Example 110, 1-(4-{5-[(1,3,3-trimethyl-6-azabicyclo[3.2.1]oct-6-yl)methyl]-1,3-oxazol-2-yl}benzyl)-1H-benzimidazole] | > 0.1
CC1CCCN(Cc2cnc(-c3ccc(Cn4cnc5ccccc54)cc3)o2)C1 (centres unmarked) [Example 109, 1-(4-{5-[(3-methylpiperidin-1-yl)methyl]-1,3-oxazol-2-yl}benzyl)-1H-benzimidazole] | > 0.1
c1ccc2c(c1)ncn2Cc1ccc(-c2nc(CN3CCCCC3)cs2)cc1 [Example 73, 1-{4-[4-(piperidin-1-ylmethyl)-1,3-thiazol-2-yl]benzyl}-1H-benzimidazole] | ≤ 0.01
C[C@@H]1CCCN1Cc1coc(-c2ccc(Cn3c(-c4ccccc4)nc4ccccc43)cc2)n1 [Example 119, 1-[4-(4-{[(2R)-2-methylpyrrolidin-1-yl]methyl}-1,3-oxazol-2-yl)benzyl]-2-phenyl-1H-benzimidazole] | 0.0101 to 0.025
